Test results from patent US9102648B1, “Bioavailable diacylhydrazine ligands for modulating the expression of exogenous genes via an ecdysone receptor complex” (Intrexon Corporation, priority 2003, dated 2015).
Like-named read-outs stand apart in the source and are kept apart here.

Biological target: GAL4 DBD (1-147)-CfEcR(DEF)/VP16AD-βRXREF-LmUSPEF (Choristoneura fumiferana, UniProt O77240)
Test: cell-based
Settings: for Fold Induction, 27-63 Assay, 3.3 uM: 3.3 uM ligand; for Fold Induction, 27-63 Assay, 3.3 uM / Fold Induction, 27-63 Assay, 33 uM: RLU ligand treated / RLU DMSO treated cells; for Fold Induction, 27-63 Assay, 33 uM: 33 uM ligand; for 27-63 assay Rel Max FI: maximum fold induction at any concentration relative to that of GS-E ligand, CHO 27-63 cells; for fold induction at 33 µM: read-out: Fold Induction, 27-63 Assay, 33 uM
Text: GAL4 DBD (1-147)-CfEcR(DEF)/VP16AD-βRXREF-LmUSPEF:
The wild-type D, E, and F domains from spruce budworm Choristoneura fumiferana EcR (“CfEcR-DEF”; SEQ ID NO: 1) were fused to a GAL4 DNA binding domain (“Gal4DBD1-147”; SEQ ID NO: 2) and placed under the control of a phosphoglycerate kinase promoter (“PGK”; SEQ ID NO: 3). Helices 1 through 8 of the EF domains from Homo sapiens RXRβ (“HsRXRβ-EF”; nucleotides 1-465 of SEQ ID NO: 4) and helices 9 through 12 of the EF domains of Locusta migratoria Ultraspiracle Protein (“LmUSP-EF”; nucleotides 403-630 of SEQ ID NO: 5) were fused to the transactivation domain from VP16 (“VP16AD”; SEQ ID NO: 6) and placed under the control of an elongation factor-1α promoter (“EF-1α”; SEQ ID NO: 7). Five consensus GAL4 response element binding sites (“5XGAL4RE”; comprising 5 copies of a GAL4RE comprising SEQ ID NO: 8) were fused to a synthetic TATA minimal promoter (SEQ ID NO: 9) and placed upstream of the luciferase reporter gene (SEQ ID NO: 10).
CHO cells were transiently transfected with transcription cassettes for GAL4 DBD (1-147) CJEcR(DEF) and for VP16AD βRXREF-LmUSPEF controlled by ubiquitously active cellular promoters (PGK and EF-la, respectively) on a single plasmid. Stably transfected cells were selected by Zeocin resistance. Individually isolated CHO cell clones were transiently transfected with a GAL4 RE-luciferase reporter (pFR Luc). 27-63 clone was selected using Hygromycin.
Cells were trypsinized and diluted to a concentration of 2.5×10^4 cells mL. 100 μL of cell suspension was placed in each well of a 96 well plate and incubated at 37° C. under 5% CO2 for 24 h. Ligand stock solutions were prepared in DMSO and diluted 300 fold for all treatments. Dose response testing consisted of 8 concentrations ranging from […] to 0.01 μM.
Luciferase reporter gene expression was measured 48 h after cell treatment using Bright-Glo™ Luciferase Assay System from Promega (E2650). Luminescence was detected at room temperature using a Dynex MLX microtiter plate luminometer.
Each assay was conducted in two separate wells, and the two values were averaged. Fold inductions were calculated by dividing relative light units (“RLU”) in ligand treated cells with RLU in DMSO treated cells. EC50s were calculated from dose response data using a three-parameter logistic model.

[1] = read-out: 27-63 assay EC50, CHO 27-63 stable cell line, luciferase reporter, average of two wells

SMILES	Fold Induction, 27-63 Assay, 3.3 uM (average of two wells)	Fold Induction, 27-63 Assay, 33 uM (average of two wells)	27-63 assay Rel Max FI	EC50 [1]	EC50	fold induction at 33 µM
COc1cccc(C(=O)NN(C(=O)c2ccc(C(F)(F)F)n(C)c2=O)C(C)(C)C)c1C [RG-115835]	3	1895	0.731	20000 nM		
CCc1ccc(C(=O)NN(C(=O)c2cc(C)cc(C)c2)C(CC)C(C)(C)C)cc1 (stereo not drawn) [RG-115836]	1822	823	0.808	98 nM		
CCc1ccc(C(=O)NN(C(=O)c2cccnc2OC)C(CC)C(C)(C)C)cc1 (stereo not drawn) [RG-115837]	1474	1156	0.569	1110 nM		
CCCCC(N(NC(=O)c1ccc(CC)cc1)C(=O)c1cc(C)cc(C)c1)C(C)(C)C (stereo not drawn) [RG-115840]	1612	263	0.776	110 nM		
CCCCC(N(NC(=O)c1ccc(CC)cc1)C(=O)c1cc(OC)c(C)c(OC)c1)C(C)(C)C (stereo not drawn) [RG-115841]	1407	437	0.610	2020 nM		
CCCCC(N(NC(=O)c1ccc(CC)cc1)C(=O)c1cccnc1OC)C(C)(C)C (stereo not drawn) [RG-115842]	1269	447	0.524	1200 nM		
CCc1ccc(C(=O)NN(C(=O)c2cc(C)cc(C)c2)C(c2ccccc2)C(C)(C)C)cc1 (stereo not drawn) [RG-115846]	1643	645	0.846	95 nM		
CCc1ccc(C(=O)NN(C(=O)c2cccnc2OC)C(c2ccccc2)C(C)(C)C)cc1 (stereo not drawn) [RG-115848]	1346	1156	0.494	1290 nM		
COc1cc(C(=O)N(NC(=O)c2cccc(OC)c2C)C(C)(C)C)nc(OC)n1 [RG-115849]	1	231	0.007	> 33000 nM		
COc1cc(C(=O)N(NC(=O)c2cccc(OC)c2C)C(C)(C)C)c(OC)nn1 [RG-115850]	1	23	0.001	> 33000 nM		
CCCCC(N(NC(=O)c1cccc(OC)c1C)C(=O)c1cc(C)cc(C)c1)C(C)(C)C (stereo not drawn) [RG-115851, 3,5-dimethyl-benzoic acid N-(1-tert-butyl-pentyl)-N′-(3-methoxy-2-methyl-benzoyl)-hydrazide]			1		20 nM	
CCCCC(N(NC(=O)c1cccc(OC)c1C)C(=O)c1cc(OC)c(C)c(OC)c1)C(C)(C)C (stereo not drawn) [RG-115852, 3,5-dimethoxy-4-methyl-benzoic acid N-(1-tert-butyl-pentyl)-N′-(3-methoxy-2-methyl-benzoyl)-hydrazide]			1		70 nM	
CCc1c(C(=O)NN(C(=O)c2cc(OC)c(C)c(OC)c2)C(CC)C(C)(C)C)ccc2c1OCCO2 (stereo not drawn) [RG-115859, 3,5-Dimethoxy-4-methyl-benzoic acid N′-(5-ethyl-2,3-dihydro-benzo[1,4]dioxine-6-carbonyl)-N-(1-ethyl-2,2-dimethyl-propyl)-hydrazide]			1.218		7 nM	1060
COc1cccc(C(=O)NN(C(=O)c2cc(Cl)nnc2Cl)C(C)(C)C)c1C [RG-115861]	8	593	0.215	4310 nM		
COc1cccc(C(=O)NN(C(=O)c2ccnnc2)C(C)(C)C)c1C [RG-115862]	1	243	0.048	> 33000 nM		
COc1cc(C(=O)N(NC(=O)c2cccc(OC)c2C)C(C)(C)C)c(=O)[nH]n1 [RG-115863]	1	804	0.154	> 33000 nM		
CCCC(N(NC(=O)c1ccc2c(c1C)OCCO2)C(=O)c1cc(OC)c(C)c(OC)c1)C(C)(C)C (stereo not drawn) [RG-115865, 3,5-Dimethoxy-4-methyl-benzoic acid N-(1-tert-butyl-butyl)-N′-(5-methyl-2,3-dihydrobenzo[1,4]dioxine-6-carbonyl)-hydrazide]			1.246		10 nM	76
CCCC(N(NC(=O)c1ccc2c(c1CC)OCCO2)C(=O)c1cc(C)cc(C)c1)C(C)(C)C (stereo not drawn) [RG-115866, 3,5-Dimethyl-benzoic acid N-(1-tert-butyl-butyl)-N′-(5-ethyl-2,3-dihydro-benzo[1,4]dioxine-6-carbonyl)-hydrazide]			0.999		10 nM	3
CCCC(N(NC(=O)c1ccc2c(c1CC)OCCO2)C(=O)c1cc(OC)c(C)c(OC)c1)C(C)(C)C (stereo not drawn) [RG-115867, 3,5-Dimethoxy-4-methyl-benzoic acid N-(1-tert-butyl-butyl)-N′-(5-ethyl-2,3-dihydro-benzo[1,4]dioxine-6-carbonyl)-hydrazide]						654
